In general, IC50 refers to the midpoint of a concentration-inhibition curve. The low end stands for greater potency in that assay, the high end for weaker potency in that assay.

The test system of test [1] is P388. Kind of test: Cytotoxicity against mouse P388 cells. The class given is functional, cell-based.
The subject of test [2] is A549. Kind of test: Cytotoxicity against human A549 cells. The class given is functional, cell-based.

Values after ≈ are worked out from the molar mass of the structure shown.

For `C=C1CCC[C@H]2[C@](C)(CC(=O)C3=C(O)C(OC)OC3=O)[C@@H](C)CC[C@]12C` (some centres not stated) [DACTYLTRONIC ACID], the IC50 in test [1] and in test [2] was 10 µg/mL (≈ 27.6 µM) in each case.

The record behind these values is ChEMBL document CHEMBL1148045, “Dactyltronic acids from the sponge Dactylospongia elegans” (J Nat Prod, 1994).
